We go through 4 compounds from patent publication US20260159486A1, “BENZO[H]QUINAZOLINE-4-AMINE DERIVATIVES FOR THE TREATMENT OF CANCER” (Redona Therapeutics, Inc., priority 2021, published 2026).

Each structure is given as a SMILES string.

One assay relates to CAL-51 cells. The assay is described as follows: CAL-51 proliferation assay. The note with it: Homo sapiens, CAL-51, 72 h, YO-PRO-1 Iodide readout. The assay is classed as cell-based. Summed up: (§1)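 Cells seeded at 750 per well, treated next day for 72 h at 37 °C with 0.5% final DMSO. Cell number read by YO-PRO-1 fluorescence after lysis, normalized to DMSO (100%) and time-zero cells (0%). GI50 from 4-parameter logistic fit, maximum constrained to 100%.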

The next assay deals with T1, recombinant human CLK3 (Homo sapiens, UniProt P49761).
T1 construct: purchased Thermo Fisher Scientific PV3826
The assay is described as follows: CLK3 kinase assay (LANCE Ultra). The assay is classed as biochemical. The note with it: CLK3 0.5 nM, ATP 300 μM, 3 hours at 30° C. Summed up:
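Recombinant human CLK3 (0.5 nM) with ULight-CREBtide (50 nM) and 300 μM ATP, 3 h at 30 °C in kinase buffer; EDTA stop, then Eu-anti-phospho-CREB antibody (2 nM, 1 h RT), TR-FRET read at 665/620 nm. Inhibition normalized to DMSO and no-ATP wells; IC50 from 4-parameter fit, ten 1:3 concentrations in duplicate.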
(TR-FRET usually uses a lanthanide donor and a delayed reading to cut background.)

In a further assay the test system is MDA-MB-231 cells. The assay is described as follows: MDA-MB-231 proliferation assay. The assay is classed as cell-based. The following applies: Homo sapiens, MDA-MB-231, 72 h, YO-PRO-1 Iodide readout. The gist of the method: as §1
The test system of assay [1] is phospho-SRSF6 in MDA-MB-468 cells. The assay is described as follows: Inhibition of phospho-SRSF6 levels in MDA-MB-468 cells (Western blot). The assay is classed as cell-based. The note with it: Homo sapiens, 2 hours, compared to DMSO control; for inhibition at 0.01 µM: 10 nM, read-out: >50% p-SRSF6 reduction at 10 nM; for inhibition at 0.1 µM: 100 nM, read-out: >50% p-SRSF6 reduction at 100 nM. On the procedure: FIG. 1: FIG. 1 provides a representative Western blot showing reduction of phosphorylated-SRSF6 (P—SRSF6) in MDA-MB 468 cells by compounds of the invention. GAPDH was probed for by Western blotting to control for equal protein loading and for normalization of samples. The numbers below the blots show percent inhibition of the P—SRSF6 signal at 100 nM (A) or 10 nM (B) compared to DMSO control.
Assessment of Inhibition of Phospho-SRSF6 Levels in MDA-MB-468 Cells
MDA-MB-468 cells (ATCC, HTB-132) were cultured in DMEM (BioConcept cat. no. 1-26F03) supplemented with 10% FBS (Sigma cat. no. F9665), […] (Sigma cat. no. S8636), 1% Penicillin-Streptomycin (BioConcept cat. no. 4-01FOO-H). When cells reached a density of 70% o in 6-well plates (TPP cat. no. 92006), they were treated either with the test compound vehicle DMSO, or with experimental compounds at a final concentration of either 10 or 100 nM for 2 hours. Thereafter, the culture medium was removed and cells were collected by scraping in Lysis Buffer (20 mM Tris HCl pH7.5, 150 mM NaCl, 1 mM EGTA, 1 mM EDTA, 1% o Triton and 1% o NP-40) containing protease and phosphatase inhibitors (Halt™ Protease&Phosphatase inhibitor cocktail 100× ThermioScientific cat. no. 1861281) and 1 mM PMSF (Fluka cat. no. 93482). Cleared lysates were stored in Eppendorfftubes at −80° C. until use, and protein concentration in lysates was determined using Pierce 660 nm Protein Assay Reagent (ThermioScientific cat. no. 22660). 20 μg proteins were diluted in 4× Laemmli buffer (Biorad cat. no. 161-0747) containing 10% beta-mercaptoethanol, separated by SDS-PAGE using 10% gels, and then transferred to PVDF membranes (Trans Blot Turbo Transfer Pack BioRad cat. no. 1704156) by Trans-Blot® Turbo™ System semidry blotting methodology (BioRad). Primary antibodies were incubated in TBS-0.1% Tween-20 buffer containing 3% BSA Bovine Albumin Fr.V (Millipore cat. no. 81-053-3) overnight at 4° C. The following primary antibodies were used: Mouse anti-phosphoepitope SR proteins clone 1H4 (Millipore cat. no. MABE50) diluted 1:5000, and rabbit anti-GAPDH clone 14C10 (Cell Signaling cat. no. 2118S) to control for equal protein loading, diluted 1:2000. HRP-conjugated secondary antibodies were incubated one hour at room temperature diluted 1:5000 in TBS-0.1% Tween-20 buffer containing […] nonfat-dried bovine milk (Sigma cat. no. M7409). The following secondary antibodies were used: Goat anti-mouse-HRP (Jackson cat. no. 115-035-146) and goat anti-rabbit-HRP (Jackson cat. no. 111-035-144). Membranes were incubated with ECL Prime Western Blot Detection Reagent (Amersham cat. no. RPN2236) to detect specific signals using Fusion SOLO S device (Vilber Lourmat). Pixel intensity of the phopsho-SRSF6 (MW 55 kDa in reference to markers) and GAPDH (MW 37 kDa) signals in the Western blots were determined using Evolution-Capt image analysis software (v17.01, Vilber Lourmat). DMSO control was used to set the phospho-SRSF6 signal at baseline, phospho-SRSF6 signals for each sample were normalized by the respective GAPDH signals and percent intensity of P—SRSF6 signal at 10 and 100 nM compound compared to DMSO control was calculated (see FIG. 1).

T1 sequence (P49761 whole entry): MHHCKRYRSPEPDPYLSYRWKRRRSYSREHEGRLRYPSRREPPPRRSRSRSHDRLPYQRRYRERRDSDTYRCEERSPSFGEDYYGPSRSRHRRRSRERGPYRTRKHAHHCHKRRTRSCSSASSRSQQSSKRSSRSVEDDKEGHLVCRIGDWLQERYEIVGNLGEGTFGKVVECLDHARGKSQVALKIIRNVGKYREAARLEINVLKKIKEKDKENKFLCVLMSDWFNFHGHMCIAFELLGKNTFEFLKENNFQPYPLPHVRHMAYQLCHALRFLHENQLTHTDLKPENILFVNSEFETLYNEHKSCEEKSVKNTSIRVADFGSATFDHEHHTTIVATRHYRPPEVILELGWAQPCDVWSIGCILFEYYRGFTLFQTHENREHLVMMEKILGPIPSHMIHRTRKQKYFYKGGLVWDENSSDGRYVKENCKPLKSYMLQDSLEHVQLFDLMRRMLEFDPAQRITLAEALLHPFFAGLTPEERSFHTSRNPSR

Consider `CN(CCO)c1c(O[C@H]2CC[C@H](N)CC2)ccc2c1CC(C)(C)c1c(N)ncnc1-2` [Example 12, 2-[[4-amino-8-(trans-4-aminocyclohexoxy)-5,5-dimethyl-6H-benzo[h]quinazolin-7-yl]-methyl-amino]ethanol], for which the GI50 in the assay on CAL-51 cells and with MDA-MB-231 cells was less than 100 nM each time. For the same compound, the IC50 – broadly, the concentration that gives 50% inhibition – at recombinant human CLK3 is less than 30 nM. For the same compound, in assay [1], the inhibition at 0.01 µM was less than 50%. In addition, the inhibition at 0.1 µM in assay [1] is greater than 50%.

Consider `CCN(CC)c1c(O[C@H]2CC[C@H](N)CC2)ccc2c1CC(C)(C)c1c(N)ncnc1-2` [Example 7, 8-(trans-4-aminocyclohexoxy)-N7,N7-diethyl-5,5-dimethyl-6H-benzo[h]quinazoline-4,7-diamine], for which the GI50 with CAL-51 cells and in the assay with MDA-MB-231 cells was 100 to 2000 nM in each case. In addition, at recombinant human CLK3, the half-maximal inhibitory concentration (IC50) was less than 30 nM. Moreover, in assay [1], the inhibition at 0.01 µM is greater than 50%. In assay [1], the inhibition at 0.1 µM was greater than 50%.

With `CC1(C)Cc2c(ccc(O[C@H]3CC[C@H](N)CC3)c2-n2cccc2)-c2ncnc(N)c21` [Example 17, 8-(trans-4-aminocyclohexoxy)-5,5-dimethyl-7-pyrrol-1-yl-6H-benzo[h]quinazolin-4-amine], the 50% growth inhibitory concentration (GI50) (as a rule, the concentration that inhibits growth by half) with CAL-51 cells was less than 100 nM. On recombinant human CLK3, the IC50 is less than 30 nM. The GI50 with MDA-MB-231 cells is less than 100 nM. In addition, in assay [1], the inhibition at 0.01 µM was less than 50% and the inhibition at 0.1 µM was greater than 50%.

On to `CN(CC(C)(C)O)c1c(O[C@H]2CC[C@H](N)CC2)ccc2c1CC(C)(C)c1c(N)ncnc1-2` [Example 40, 1-[[4-amino-8-(trans-4-aminocyclohexoxy)-5,5-dimethyl-6H-benzo[h]quinazolin-7-yl]-methyl-amino]-2-methyl-propan-2-ol], for which the values for the GI50 in the assay on CAL-51 cells and with MDA-MB-231 cells were less than 100 nM and 100 to 2000 nM, respectively. Further, the IC50 on recombinant human CLK3 is 30 to 100 nM. Also, the inhibition at 0.01 µM in assay [1] was greater than 50%. Further, the inhibition at 0.1 µM in assay [1] was greater than 50%.
